Measurements as given in PubChem BioAssay AID179 (DTP/NCI, 2004).
Active and inactive are the calls of the source.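 How the source made its calls: active means compounds giving half or more protection of infected cells from virus-caused growth loss, again on retest; inactive means the rest.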

System: CEM cells HIV-1 protection, formazan growth assay
Test: NCI AIDS Antiviral Assay
Settings: for IC50: measured here: growth of uninfected CEM cells
Outline: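 CEM (human) cells, HIV-1 infected vs uninfected, 5-point dosing, formazan growth read-out. Retest threshold 50% protection.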

| Structure (SMILES) | EC50 [µM] | IC50 [µM] | outcome |
| --- | --- | --- | --- |
| O=c1nc(N2CCCC2)oc2cc3ccccc3cc12 | > 200 | 89.1 | – |
| Cc1cc(O)c(C(C)C)cc1NC(=O)Nc1cccc2ccccc12 | > 56.2 | 40.7 | – |
| O=C1C2CCN(CC2)C1CNC1(c2ccccc2)CCCCC1 (stereo not given) | – | – | inactive |
| CC(=Nc1ccc(Cl)c(Cl)c1)c1ccncc1 | – | – | inactive |
| COc1ccc(/C=C/c2nc(=S)[nH][nH]2)cc1 | > 214 | > 214 | – |
| CC1=C[P+](CCc2ccccc2)(CCc2ccccc2)C=C1C | – | – | inactive |
| CCCN(CCC)/N=C/c1c2c(O)c3c(O)c(C)c4c(c3c1O)C(=O)C(C)(O/C=C/C(OC)C(C)C(OC(C)=O)C(C)C(O)C(C)C(O)C(C)/C=C/C=C(C)C(=O)N2)O4 (stereo not given) | > 200 | 3.47 | – |
| CCOC(=O)C1=C(NC(C)(C)C)OC/C1=N\NC(=O)Cc1ccccc1 | > 72.4 | > 72.4 | – |
| C=CCCCCCCCCCCCC1CCC(CC)N1 (stereo not given) | > 240 | > 240 | – |
| N#Cc1c(-c2ccc(Cl)cc2)c2c(n(C3OC(CO)C(O)C(O)C3O)c1=S)CCCC2 (stereo not given) | > 200 | 69.2 | – |
| O=C(C(O)c1cn(Cc2ccccc2)c2ccccc12)N1CCCCC1 (stereo not given) | – | – | inactive |
| N#Cc1c(Cl)c2ccccc2n2c1nc1ccccc12 | > 151 | 8.32 | – |
| O=C([O-])c1ccccn1.O=C([O-])c1ccccn1.[Cu+2] | > 200 | 7.76 | – |
| c1cc2[nH]snc2c2cncc12 | > 200 | 11.2 | – |
| O=C1NC(=S)N(c2ccccc2)C1=O | > 200 | > 200 | – |
| CN(C(=O)C12C3C4C1C1C4(C#N)C3C12C(=O)O)C(C)(C)C (stereo not given) | > 158 | > 158 | – |
| O=C(Nc1ccc(F)cc1)C(=O)C(C1OC(=O)c2ccccc21)[N+](=O)[O-] (stereo not given) | > 692 | 355 | – |
| O=C(/C=C/c1ccccc1)c1ccc(Cl)s1 | > 200 | 12.3 | – |
| Brc1cc2[nH]c(-c3ccccc3)c(Br)c2c(Br)c1Br | > 200 | 5.13 | – |
| N#Cc1c2c(c(N3CCOCC3)n3c1nc1ccccc13)CCCC2 | > 200 | 8.32 | – |
| COc1cccc(C(=O)N2CCc3ccccc32)c1OC | – | – | inactive |
| CC(=O)n1nc(-c2ccc3ccccc3c2)nc1C | > 200 | 79.4 | – |
| Cc1cccc(Nc2nc(N)nc(N)c2N=O)c1 | > 200 | 20.9 | – |

| Structure (SMILES) | EC50 [µM] | IC50 [µM] | outcome |
| --- | --- | --- | --- |
| N#CCCN(CCC#N)c1ccc(/C=C2\N=C(c3cc([N+](=O)[O-])ccc3Cl)N(S(=O)(=O)c3ccccc3)C2=O)cc1 | > 12.3 | > 12.3 | – |
| C[N+]1(C)CN(c2ccccc2)C2(CCN(CCCC(=O)c3cccs3)CC2)C1=O | > 200 | 55 | – |
| COC(=O)c1onc(-c2c(OC)cc(OC)cc2OC)c1C(=O)OC | > 141 | 115 | – |
| Nc1ncnc2c1ccn2COC(CO)CO | > 200 | > 200 | – |
| NCCCNCCSSCCNCCCN | > 200 | 10.5 | – |
| COc1cccc(NC(=S)Nn2c(C)nc3ccccc3c2=O)c1 | > 105 | > 105 | – |
| COc1ccc(/C=C2\CN(C)C/C(=C\c3ccc(OC)c(OC)c3OC)C2=O)c(OC)c1OC | > 2 | 0.331 | – |
| Cc1c(Cl)c(=O)oc2cc(OCC(=O)c3ccccc3)ccc12 | > 100 | > 100 | – |
| COc1cc2c(cc1O)C1CC(CC3CCCCN31)OC(=O)/C=C\c1ccc(O)c-2c1 (stereo not given) | > 200 | 45.7 | – |
| C(=N\Nc1ccc2ccccc2n1)/c1ccccn1 | > 20 | 1.1 | – |
| CC(C)CCCCCCCCCCCCC(=O)NCC(=O)NC1C(C)OC(Nc2ncnc3c2ncn3C)C(O)C1O (stereo not given) | – | – | inactive |
| COc1ccc(/C=N/NS(=O)(=O)c2ccc(/C=C3\NC(=O)N(C)C3=O)cc2)cc1 | > 200 | > 200 | – |
| CC1Oc2c3c(cc(O)c2C(=O)[C@@H]1C)OC(C)(C)CC3 (stereo not given in full) | > 200 | 50.1 | – |
| O=C(Oc1ccccc1)C(c1ccccc1)c1ccccc1 | > 102 | > 102 | – |
| CCCC(=O)OCC(COC(=O)CCC)OC(=O)CCC | > 200 | > 200 | – |
| C=CCOCn1cnc2c(=O)[nH]c(N)nc21 | > 200 | > 200 | – |
| CC[Si](CC)(CC)OC(C#N)c1ccc2c(c1)OCO2 (stereo not given) | – | – | inactive |
| CCN(CC)c1oc(N(CC)CC)c(C(=O)Nc2ccccn2)c(=O)c1C(C)=O | > 631 | 251 | – |
| CCOC(=O)C1=C(C)C(C(=O)OC)[C@]2(C)C(C(=O)OCC)=C(O)C(C(=O)OC)[C@]12C (stereo not given in full) | > 126 | > 126 | – |
| CC[N+]12CN3CN(CN(C3)C1)C2 | > 851 | 437 | – |
| COc1cc(C2c3cc4c(cc3C(=O)C3CCC(=O)N32)OCO4)cc(OC)c1O (stereo not given) | > 50.1 | 27.5 | – |
| O=S(=O)(O)c1ccc2c(N=Nc3cccc4ccccc34)c(O)c(S(=O)(=O)O)cc2c1 | – | – | inactive |
| C=C1CC(COc2cc(=O)oc3ccccc23)(c2ccccc2)OC1=O (stereo not given) | > 200 | 0.38 | – |

| Structure (SMILES) | EC50 [µM] | IC50 [µM] | outcome |
| --- | --- | --- | --- |
| COc1ccc(NC(=O)/C(=N/NC(N)=S)C2C(=O)NC(=S)NC2=O)c(OC)c1 | > 589 | > 589 | – |
| c1ccc(C2=NOC3C4CCC(C4)C23)cc1 (stereo not given) | – | – | inactive |
| CCOC(=O)N1CCN(Cc2cc(=O)n3cc(C)ccc3n2)CC1 | > 200 | > 200 | – |
| COc1ccc(NS(=O)c2ccc(Cl)cc2)cc1 (stereo not given) | > 200 | 17.4 | – |
| O=C1N2CCN=C2c2ccccc2C1(O)c1ccccc1 (stereo not given) | > 200 | > 200 | – |
| C=CCCC(=O)C(=[N+]=[N-])C(=O)CCC(=O)c1ccccc1 | > 200 | 20 | – |
| c1ccc(CN(Cn2cccn2)Cn2cccn2)nc1 | – | – | inactive |
| CC1(C)OCC(CO)(Nc2nc(N3CC3)nc(N3CC3)n2)CO1 | > 200 | 0.741 | – |
| CCN(CC)CCNc1nc(N)c(C#N)c(C#N)c1C#N | > 200 | 174 | – |
| COC(=O)C1=C(SC)SC2(C(=O)OC)C3C=C(C)C4C(N13)C42C(=O)OC (stereo not given) | > 3.63 | > 3.63 | – |
| CCOC(=O)c1cn2ccccc2c(C(C)=O)c1=N | > 200 | 166 | – |
| Cc1ccnc(NC(=O)Nc2ccccc2Cl)c1 | > 200 | > 200 | – |
| CSc1nc(-c2ccccc2)nc(=[N+]2CCOCC2)s1 | > 417 | 234 | – |
| C=CCn1c(=N)/c(=C(\N)O)s/c1=C1/SC(=S)N(c2ccc(C)cc2)C1=O | > 6.76 | > 6.76 | – |
| c1ccc(CSc2nc3ccccc3nc2-c2cccs2)cc1 | > 21.4 | > 21.4 | – |
| COC(=O)C1=CN=C(C(=O)OC)NN1 | > 1260 | 537 | – |
| COc1ccc(SS(=O)(=O)c2ccc(OC)cc2)cc1 | > 56.2 | 5.25 | – |
| CC(C)N=C(N)NC#N | > 1480 | > 1480 | – |
| CC1(C)CCCC2(C)[C@@H]1CC[C@]13C[C@](C)(CC[C@@H]21)[C@@H]3CO (stereo not given in full) | > 12.3 | > 12.3 | – |
| CCOCNC(=O)N(COCC)COCC | > 398 | > 398 | – |
| O=C1CC(c2ccc(O)cc2)C2(O1)C(=O)OC1C(O)COC12O (stereo not given) | – | – | inactive |
| Cc1cc2c(C(C)C)c(O)c(O)c(C=NCc3ccoc3)c2c(O)c1-c1c(C)cc2c(C(C)C)c(O)c(O)c(C=NCc3ccco3)c2c1O | > 200 | 10 | – |
